Reference: ChEMBL document CHEMBL1156829 (Proc Natl Acad Sci U S A, 2008)
Counter-ions that a name gives are not always drawn.

Tests used:
Plasmodium falciparum [1] = assay: NOVARTIS: Inhibition of Plasmodium falciparum 3D7 (drug-susceptible) proliferation in erythrocyte-based infection assay; format: functional, organism-based; settings: Plasmodium falciparum, 3D7
Plasmodium falciparum [2] = assay: NOVARTIS: Inhibition of Plasmodium falciparum W2 (drug-resistant) proliferation in erythrocyte-based infection assay; format: functional, organism-based; settings: Plasmodium falciparum, W2; read-out: EC50
[3] = NOVARTIS: Cytotoxicity against human hepatocellular carcinoma cell line (Huh7); format: toxicity, cell-based, Huh-7; settings: Huh7 cells (hepatocellular carcinoma cell line)

SMILES | EC50 (Plasmodium falciparum [1]) | EC50 (Plasmodium falciparum [2]) | CC50 [3]
CCOC(=O)c1cnc2c(C)cc(Cl)cc2c1Nc1ccc(OC)c(OC)c1 | > 1.25 µM | > 0.726 µM | > 11.8 µM
COc1cc(NC(C)CCCN(Cc2ccc(Cl)cc2)C(=O)Nc2ccc(Br)cc2)c2ncccc2c1 (stereo not given) | > 1.25 µM | 0.788 µM | > 5.6 µM
COCCN(CC(O)CNC(=O)c1ccc2ccccc2n1)S(=O)(=O)c1c(C)noc1C (stereo not given) | > 0.09 µM | > 0.895 µM | > 10 µM
CCOC(=O)C1=C(C)NC2=C(C(=O)CC(c3ccc(OC)cc3)C2)C1c1cccc(F)c1 (stereo not given) | 0.137 µM | 0.0504 µM | > 100 µM
OC(CNC1CCCCC1)Cn1c2ccc(Cl)cc2c2cc(Cl)ccc21 (stereo not given) | 0.333 µM | 0.116 µM | 57.3 µM
O=C1C(O)=CC(=Nc2ccc(Cc3ccncc3)cc2)c2ccccc21 | 0.496 µM | 0.739 µM | > 10 µM
Cc1ccc(N2C(N)=NC(N)=NC2(C)C)c(C)c1 | 0.105 µM | > 12.5 µM | > 100 µM
N#Cc1ccc(NC(=O)CCCC(=O)O)cc1 | 2.08 µM | < 0.0106 µM | > 10 µM
CC(C)(C)CC(=O)NCCCCNc1ccnc2cc(Cl)ccc12 | 0.0207 µM | 0.102 µM | > 12.2 µM
COc1ccccc1C(=O)NC1CCN(CC(O)CN(Cc2ccccc2)S(=O)(=O)c2ccccc2)C1 (stereo not given) | 0.215 µM | 0.115 µM | > 10 µM
CC1(C)N=C(N)N=C(N)N1c1ccc(Cl)cc1 [CHLORCYCLOGUANIL HYDROCHLORIDE] | 0.000986 µM | 0.884 µM | 27.4 µM
CCN(C(=O)Cn1c(=O)oc2ccccc21)c1ccc(F)cc1 | > 1.53 µM | 2.31 µM | > 10 µM
CCC(=O)N1CCOc2c(cc(-c3csc4ccccc34)cc2OCCc2ccccn2)C1 | > 1.62 µM | 1.35 µM | > 10 µM
CCOP(=O)(OCC)C(O)c1ccc(C)cc1 (stereo not given) | > 1.25 µM | > 1.18 µM | > 10 µM
CN(C)CCCNc1ncnc2c1[nH]c1ccc(Cl)cc12 | 0.0261 µM | 0.0437 µM | 20.7 µM
O=C(Nc1nc(-c2ccccc2)cs1)c1ccccc1O | 1 µM | 0.643 µM | 24.3 µM
COc1ccc(OC)c(-c2ccc(O)c(CNCc3ccccc3OC)c2)c1 | > 1.52 µM | 0.117 µM | > 10 µM
CCCCc1c(C)nc2c(OC)cccc2c1O | 1.69 µM | 2.11 µM | > 100 µM

SMILES | EC50 (Plasmodium falciparum [1]) | EC50 (Plasmodium falciparum [2]) | CC50 [3]
Cc1cc(C)[n+]2nc(N)c3ccccc3c2n1.[O-][Cl+3]([O-])([O-])[O-] | 0.248 µM | 0.193 µM | > 10 µM
COc1ccc2[nH]c3c(=O)n(C)cnc3c2c1 | > 1.41 µM | 1 µM | > 10 µM
COc1ccc(N2C(N)=NC(N)=NC2(C)C)cc1 | 0.0138 µM | > 1.25 µM | > 10 µM
Cc1cc(Nc2ccc(N(C)C)cc2)n2ncnc2n1 | 6 µM | 2.27 µM | > 100 µM
O=S(=O)(c1ccc(Cl)cc1)N1CCN(C(=S)NCc2ccco2)CC1 | 0.973 µM | 0.524 µM | > 100 µM
Cn1c(=O)n(C)c2cc(NC(=O)CCl)ccc21 | 1.47 µM | 0.444 µM | 12.2 µM
CC1=NOC(=O)C1=Cc1cccs1 | > 8.25 µM | 0.776 µM | 49.7 µM
COc1ccc(NS(=O)(=O)c2cccc(C(=O)Nc3ccccc3[N+](=O)[O-])c2)cc1 | > 12.5 µM | 4.13 µM | 44.5 µM
CCOC(=O)C1=C(C)N=c2sc(=Cc3ccccc3OC(C)=O)c(=O)n2C1c1ccc(OC)cc1 (stereo not given) | 0.515 µM | 0.339 µM | > 100 µM
O=[N+]([O-])c1cc([N+](=O)[O-])c2cccnc2c1Nc1cccc2cccnc12 | 8.04 µM | 6.44 µM | 59.9 µM
CCOc1cc(-c2nc3c(=O)n(C)c(=O)nc-3n(C)n2)ccc1OC(C)C | 0.333 µM | 0.0293 µM | > 10 µM
CCOc1cc(C2CC(=O)NC3=C2C(=O)CC(c2cc(OC)ccc2OC)C3)ccc1O (stereo not given) | 0.431 µM | 0.123 µM | > 100 µM
Cc1c(C)n(Cc2ccc(F)cc2)c2ccc(C(=O)NCc3ccco3)cc12 | 0.0782 µM | 0.399 µM | > 100 µM
CCOC(=O)C1=C(C)NC2=C(C(=O)CC(c3ccc(OC)c(OC)c3)C2)C1c1ccc(F)cc1 (stereo not given) | 0.0183 µM | 0.0124 µM | > 100 µM
CCCCCN(CC(=O)Nc1cc(C(C)(C)C)nn1-c1ccc(Cl)c(Cl)c1)C(=O)c1ccc2c(c1)OCO2 | 1.03 µM | 0.966 µM | > 10 µM
CCCCOc1ccc(C(O)C(CN2CCCCC2)c2ccccc2)cc1 (stereo not given) | 0.835 µM | 0.591 µM | 39.3 µM
Cc1cnc(C)c(-c2ccc(O)c(CNCC3(N4CCCCC4)CCCCC3)c2)n1 | 0.326 µM | 0.0398 µM | > 7.78 µM
